# Assays:
# MAP2K3 [1] = biological target: T1, MAP2K3 (Homo sapiens, UniProt P46734); assay: KiNativ, OCI cells live cell; format: cell-based; details: 2 h
# T1 sequence (P46734 1-347): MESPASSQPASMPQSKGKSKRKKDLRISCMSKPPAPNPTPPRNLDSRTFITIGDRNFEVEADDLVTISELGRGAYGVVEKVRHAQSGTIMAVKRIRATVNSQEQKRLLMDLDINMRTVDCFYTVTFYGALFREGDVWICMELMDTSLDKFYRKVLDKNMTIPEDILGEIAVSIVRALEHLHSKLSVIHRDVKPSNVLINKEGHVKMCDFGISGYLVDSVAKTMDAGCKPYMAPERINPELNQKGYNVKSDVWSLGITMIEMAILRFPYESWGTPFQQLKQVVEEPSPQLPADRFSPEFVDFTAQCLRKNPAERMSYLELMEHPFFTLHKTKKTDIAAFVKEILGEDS
# FAM20B = FAM20B (Homo sapiens, UniProt O75063); assay: KiNativ, OCI cells live cell; format: cell-based; details: 2 h, labeling site ATP, peptide […]
# FAM20B, sequence (O75063 whole entry): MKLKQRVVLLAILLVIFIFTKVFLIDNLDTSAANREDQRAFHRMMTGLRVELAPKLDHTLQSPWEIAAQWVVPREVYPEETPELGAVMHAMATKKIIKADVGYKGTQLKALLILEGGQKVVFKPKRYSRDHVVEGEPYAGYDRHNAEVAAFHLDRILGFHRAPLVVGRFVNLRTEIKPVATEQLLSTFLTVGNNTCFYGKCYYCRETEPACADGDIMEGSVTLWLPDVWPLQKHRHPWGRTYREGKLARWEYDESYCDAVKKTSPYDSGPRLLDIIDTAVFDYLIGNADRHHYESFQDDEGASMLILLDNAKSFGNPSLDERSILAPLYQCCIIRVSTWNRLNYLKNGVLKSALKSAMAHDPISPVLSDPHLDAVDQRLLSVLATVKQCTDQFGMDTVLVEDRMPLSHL
# MAP2K3 [2] = biological target: T1, MAP2K3; assay: KiNativ, MOLM13 live cells; format: cell-based; details: MOLM-13, 2 h, 100 nM
# Protocol: (§1) Samples were analyzed by KiNativ in situ kinase profiling by ActivX Biosciences.
# PIP4K2B = PIP4K2B (Homo sapiens, UniProt P78356); assay: KiNativ, MOLM13 live cells; format: cell-based; details: MOLM-13; 100 nM, 2 hours; ATP; read-out: Inhibition vs DMSO
# PIP4K2B, sequence (P78356 whole entry): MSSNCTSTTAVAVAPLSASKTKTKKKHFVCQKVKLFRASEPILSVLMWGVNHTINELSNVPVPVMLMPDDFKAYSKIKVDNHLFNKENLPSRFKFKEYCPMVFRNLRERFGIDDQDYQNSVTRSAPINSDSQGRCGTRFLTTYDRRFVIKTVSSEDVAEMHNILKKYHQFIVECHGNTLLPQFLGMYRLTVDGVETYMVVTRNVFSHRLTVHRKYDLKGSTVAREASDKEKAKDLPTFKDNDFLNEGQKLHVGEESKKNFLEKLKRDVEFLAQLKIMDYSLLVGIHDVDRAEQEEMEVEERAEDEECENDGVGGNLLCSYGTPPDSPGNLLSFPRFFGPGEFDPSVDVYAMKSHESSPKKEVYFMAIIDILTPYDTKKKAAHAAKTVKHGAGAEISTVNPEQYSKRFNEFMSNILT
# Protocol: as §1
# YANK3 = YANK3 (Homo sapiens, UniProt Q86UX6); assay: KiNativ, MOLM13 live cells; format: cell-based; details: MOLM-13; 100 nM, 2 hours; Lys2; read-out: Inhibition vs DMSO
# YANK3, sequence (Q86UX6 whole entry): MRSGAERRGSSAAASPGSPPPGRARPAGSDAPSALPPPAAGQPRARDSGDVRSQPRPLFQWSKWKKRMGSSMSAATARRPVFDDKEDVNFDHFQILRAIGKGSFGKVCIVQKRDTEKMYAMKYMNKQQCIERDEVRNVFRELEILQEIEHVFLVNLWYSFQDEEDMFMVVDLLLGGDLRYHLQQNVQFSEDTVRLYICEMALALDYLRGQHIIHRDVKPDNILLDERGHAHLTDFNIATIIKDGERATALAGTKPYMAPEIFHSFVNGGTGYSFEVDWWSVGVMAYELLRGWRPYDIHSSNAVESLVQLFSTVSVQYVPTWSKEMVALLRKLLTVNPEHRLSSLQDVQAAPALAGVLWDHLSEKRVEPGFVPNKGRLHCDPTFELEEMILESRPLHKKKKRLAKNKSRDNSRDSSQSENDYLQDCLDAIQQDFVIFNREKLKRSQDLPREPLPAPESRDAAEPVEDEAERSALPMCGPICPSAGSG
# Protocol: as §1
# CDK7 = CDK7 (Homo sapiens, UniProt P50613); assay: KdELECT binding assay; design: purchased Eurofins DiscoverX
# CDK7, sequence (P50613 whole entry): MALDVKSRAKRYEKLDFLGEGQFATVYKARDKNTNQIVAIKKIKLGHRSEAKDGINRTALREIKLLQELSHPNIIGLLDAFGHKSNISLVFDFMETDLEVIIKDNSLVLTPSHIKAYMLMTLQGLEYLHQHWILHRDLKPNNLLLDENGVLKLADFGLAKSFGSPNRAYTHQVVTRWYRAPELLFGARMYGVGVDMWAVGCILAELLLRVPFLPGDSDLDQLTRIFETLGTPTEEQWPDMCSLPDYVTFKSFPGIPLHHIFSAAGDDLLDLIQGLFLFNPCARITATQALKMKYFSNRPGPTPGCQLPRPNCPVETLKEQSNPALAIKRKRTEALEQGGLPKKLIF
# CDC2 = CDC2 (Homo sapiens, UniProt P06493); assay: KiNativ, OCI cells live cell; format: cell-based; details: 2 h
# CDC2, sequence (P06493 whole entry): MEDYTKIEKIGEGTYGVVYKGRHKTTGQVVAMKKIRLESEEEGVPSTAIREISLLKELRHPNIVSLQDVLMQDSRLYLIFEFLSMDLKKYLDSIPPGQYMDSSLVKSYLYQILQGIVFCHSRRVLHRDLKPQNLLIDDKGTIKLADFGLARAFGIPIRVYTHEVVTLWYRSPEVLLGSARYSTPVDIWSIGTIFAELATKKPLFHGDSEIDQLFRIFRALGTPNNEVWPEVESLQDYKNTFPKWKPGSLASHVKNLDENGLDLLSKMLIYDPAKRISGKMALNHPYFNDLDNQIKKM
# [3] = tested on: murine FLT3-ITD+/– IDH2-R140Q+/– AML cells; assay: Primary transplantation model of murine AML cells; format: in vivo, NSG mice
# Protocol: Engraftment and growth of leukemic cells were monitored by noninvasive bioluminescence imaging in cell line xenograft models, as previously done ([47]). Details on the cell engraftment and dosing in mouse models are provided in the Supplemental Methods.
# Luc+ or MOLM13-Res -Luc+ cells, 0.5 million OCI-AML3 -Luc+ cells, and 10,000 Ba/F3-FLT3-ITD/F691L-GFP+ cells. Weekly tumor engraftment of cell line xenograft models were assessed after injection of D-luciferin (150mg/kg i.p.; Gold Biotechnology, Inc, St. Louis, MO) on Xenogen IVIS-200 imaging system (Perkin Elmer, Waltham, MA) or GFP monitoring by peripheral blood via BD LSR II flow cytometer (BD Biosciences, San Jose, CA). Signal intensity was analyzed using Living Image Software (PerkinElmer) or FlowJo v10.0.08 software (FlowJo, LLC, Ashland, OR). Mice were randomized to treatment groups based on signal intensity and leukemia burden. Drug treatments were started on days 3, 7, or 13 after cell injection in OCI-AML3, MOLM13, and MOLM13-Res xenografts, respectively. In murine AML transplantation model, 1 million FLT3-ITD+/-/IDH2-R140Q+/- splenocytes (in house colony) were intravenously injected in male NSG mice. […]
# At indicated time points, cells were collected and washed with PBS. CD11b expression was measured using anti-CD11b -APC antibody (BioLegend, San Diego, CA). […] CD11b expression and apoptosis were measured by BD LSR II flow cytometer. […]
# SYK = SYK (Homo sapiens, UniProt P43405); assay: KiNativ, OCI cells live cell; format: cell-based
# CSK = CSK (Homo sapiens, UniProt P41240); assay: KiNativ, OCI cells live cell; format: cell-based
# CSK, sequence (P41240 whole entry): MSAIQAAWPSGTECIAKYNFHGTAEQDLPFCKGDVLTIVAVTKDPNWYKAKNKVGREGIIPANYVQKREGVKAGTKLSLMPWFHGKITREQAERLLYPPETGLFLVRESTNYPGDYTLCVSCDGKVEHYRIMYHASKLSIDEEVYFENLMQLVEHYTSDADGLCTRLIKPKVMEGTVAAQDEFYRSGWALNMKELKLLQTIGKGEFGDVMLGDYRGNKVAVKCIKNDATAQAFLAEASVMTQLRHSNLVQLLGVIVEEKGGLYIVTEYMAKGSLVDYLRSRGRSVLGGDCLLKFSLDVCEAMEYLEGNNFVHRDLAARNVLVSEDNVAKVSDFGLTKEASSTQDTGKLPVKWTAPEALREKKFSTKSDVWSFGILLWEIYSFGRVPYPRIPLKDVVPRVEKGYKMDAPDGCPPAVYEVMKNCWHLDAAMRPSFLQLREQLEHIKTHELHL
# [4] = tested on: Ba/F3 cells expressing FLT3 D835H/Y; assay: MTT viability assay; format: cell-based; details: Mus musculus, BaF3, read-out: IC50 values, range
# Protocol: (§2) Drug treatments were carried out for 72 hours. Details are provided in the Supplemental Methods.
# [5] = tested on: MV4-11, MOLM13, and MOLM13-RES cells; assay: MTT viability assay; format: cell-based; details: Homo sapiens; range over MV4-11, MOLM13, MOLM13-RES
# Protocol: as §2
# TAO1, TAO3 = assay: KiNativ, OCI cells live cell; format: cell-based, human; details: labeling site Lys2, peptide DIKAGNILLTEPGQVK
# ABL1 = biological target: T2, ABL1 (Homo sapiens, UniProt P00519); assay: KdELECT binding assay
# T2 construct: purchased Eurofins DiscoverX
# T2 sequence (P00519 whole entry): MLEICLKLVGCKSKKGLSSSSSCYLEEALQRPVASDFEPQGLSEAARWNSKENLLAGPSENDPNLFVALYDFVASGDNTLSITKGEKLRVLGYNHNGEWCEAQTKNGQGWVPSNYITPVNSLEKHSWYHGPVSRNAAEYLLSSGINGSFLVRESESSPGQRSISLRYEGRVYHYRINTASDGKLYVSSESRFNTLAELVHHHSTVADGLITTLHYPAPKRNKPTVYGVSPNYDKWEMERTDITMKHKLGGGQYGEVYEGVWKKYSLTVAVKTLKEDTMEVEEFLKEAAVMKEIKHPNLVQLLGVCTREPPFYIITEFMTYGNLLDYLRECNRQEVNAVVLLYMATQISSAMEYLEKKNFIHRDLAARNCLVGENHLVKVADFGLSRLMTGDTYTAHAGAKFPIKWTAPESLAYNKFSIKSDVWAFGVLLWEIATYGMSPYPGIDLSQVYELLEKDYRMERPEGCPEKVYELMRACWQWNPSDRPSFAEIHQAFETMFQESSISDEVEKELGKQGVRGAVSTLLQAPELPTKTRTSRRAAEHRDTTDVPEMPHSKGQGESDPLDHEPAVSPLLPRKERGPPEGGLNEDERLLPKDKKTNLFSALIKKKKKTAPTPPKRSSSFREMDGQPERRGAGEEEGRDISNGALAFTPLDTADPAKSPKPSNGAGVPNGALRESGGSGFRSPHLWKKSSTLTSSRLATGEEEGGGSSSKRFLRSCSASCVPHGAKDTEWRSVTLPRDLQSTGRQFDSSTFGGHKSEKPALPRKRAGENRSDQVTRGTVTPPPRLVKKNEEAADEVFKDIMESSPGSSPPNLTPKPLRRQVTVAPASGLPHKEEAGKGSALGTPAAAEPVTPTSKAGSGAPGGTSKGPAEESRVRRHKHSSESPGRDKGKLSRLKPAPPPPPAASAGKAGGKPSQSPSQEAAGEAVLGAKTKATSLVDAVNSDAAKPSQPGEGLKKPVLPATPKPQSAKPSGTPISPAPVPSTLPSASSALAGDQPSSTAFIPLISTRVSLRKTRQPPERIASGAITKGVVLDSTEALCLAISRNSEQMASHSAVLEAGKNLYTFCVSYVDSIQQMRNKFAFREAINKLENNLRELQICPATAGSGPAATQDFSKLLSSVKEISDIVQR
# MST2 = MST2 (Homo sapiens, UniProt Q13188); assay: KiNativ, OCI cells live cell; format: cell-based; details: 2 h, labeling site Lys1, peptide […]
# MST2, sequence (Q13188 whole entry): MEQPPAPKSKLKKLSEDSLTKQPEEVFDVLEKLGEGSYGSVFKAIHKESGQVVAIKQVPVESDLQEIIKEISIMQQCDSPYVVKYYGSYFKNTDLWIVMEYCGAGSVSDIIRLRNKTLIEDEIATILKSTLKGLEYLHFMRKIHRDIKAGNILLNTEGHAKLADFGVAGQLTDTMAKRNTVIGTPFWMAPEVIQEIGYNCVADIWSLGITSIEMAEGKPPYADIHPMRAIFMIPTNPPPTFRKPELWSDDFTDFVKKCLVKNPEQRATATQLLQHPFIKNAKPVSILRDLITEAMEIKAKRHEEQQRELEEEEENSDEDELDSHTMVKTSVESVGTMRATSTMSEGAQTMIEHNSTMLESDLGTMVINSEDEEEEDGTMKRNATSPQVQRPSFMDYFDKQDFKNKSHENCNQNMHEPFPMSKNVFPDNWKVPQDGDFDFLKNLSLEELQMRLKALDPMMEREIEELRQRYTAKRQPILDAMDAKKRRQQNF
compound,measurement,setting,value
CN1CCN(Cc2ccc(Nc3ncc(Cl)c(Nc4ccccc4S(=O)(=O)N(C)C)n3)cc2)CC1 [TP-0903],inhibition at 0.1 µM,"MAP2K3 [1]; labeling site Activation Loop, peptide MCDFGISGYLVDSVAKTMDAGCKPYMAPER",6.8%
same,inhibition at 0.1 µM,"MAP2K3 [1]; labeling site Lys1, peptide HAQSGTIMAVKR",8%
same,inhibition at 0.1 µM,"MAP2K3 [1]; labeling site Lys2, peptide DVKPSNVLINK",8.2%
same,inhibition at 0.1 µM,FAM20B,7.4%
same,inhibition at 0.1 µM,"MAP2K3 [2]; Activation Loop, read-out: Inhibition vs DMSO",-10.9%
same,inhibition at 0.1 µM,"MAP2K3 [2]; Lys1, read-out: Inhibition vs DMSO",3.4%
same,inhibition at 0.1 µM,"MAP2K3 [2]; Lys2, read-out: Inhibition vs DMSO",8.2%
same,inhibition at 0.1 µM,PIP4K2B,-16.2%
same,inhibition at 0.1 µM,YANK3,-4.7%
same,Kd,CDK7,< 5 nM
same,inhibition at 0.1 µM,"CDC2; labeling site Lys1, peptide TTGQVVAMKK",-4.5%
same,inhibition at 0.1 µM,"CDC2; labeling site Lys2, peptide DLKPQNLLIDDK",-2.5%
same,inhibition at 0.1 µM,"CDC2; labeling site Protein Kinase Domain, peptide KPLFHGDSEIDQLFR",-37.1%
same,Spleen weight at study endpoint (mean ± SD),[3]; 40 mg/kg once daily,50 ± 13 mg
same,Survival prolonged compared with vehicle,[3]; 40 mg/kg once daily up to 6 weeks,9 days
same,Inhibition,"SYK; labeling site Activation Loop, peptide AQTHGKWPVK",39.8%
same,Inhibition,"SYK; labeling site Activation Loop, peptide ISDFGLSKALR",38.5%
same,Inhibition,"SYK; labeling site Lys1, peptide TVAVKILK",37.9%
same,Inhibition,"CSK; labeling site Activation Loop, peptide VSDFGLTKEASSTQDTGKLPVK",11.9%
same,Inhibition,"CSK; labeling site Lys1, peptide VAVKCIK",0.379%
same,IC50,[4],16 to 22 nM
same,IC50,[5],16 to 21 nM
same,Inhibition,"TAO1, TAO3",73.9%
same,Kd,ABL1,< 5 nM
same,inhibition at 0.1 µM,MST2,7.3%

# Source: article PMC7714403 (JCI Insight, 2020)
